# Where two headings read alike, the source gives them in different places.
# What was measured:
# [1] = system: kidney disease model rats; test: Action to lower blood pressure in kidney disease model rats; type: in vivo, Sprague-Dawley female rats; settings: 20 mg/kg oral
# Experimental: (§1) In this Example, an action to lower blood pressure was evaluated. That is, each of 2-ethoxy-1-[[4'- (2'-N,N-dimethylamino-ethoxycarbonyl) phenyl]methyl]-1H-benzimidazole-6-carboxylic acid morpholide (Compound No. 13) prepared in Example 6, 2-ethoxy-1-[[4'-(2"-morpholinoethoxycarbonyl)-phenyl]methyl]-1H-benzimidazole-6-carboxylic acid piperidinamide (Compound No. 57) prepared in Example 28, or the reference substance was forcibly orally administered to kidney disease model rats, and the action of lowering the blood pressure was observed. The kidney disease model rats were prepared by a ligature of branches of renal artery in accordance with a conventional method. Namely, the left hilum renalis of Sprague-Dawley female rats was exposed under anesthesia, and one of four secondary branches of the renal artery was left unligated, while the remaining three branches were ligated, respectively. After a week, the hilum renalis (artery, vein, and ureter) of the right kidney were further ligated to thereby prepare rats whose renal function was lowered to approximately 1/8 of the normal function. Each group consisted of eight rats. The drugs to be tested (20 mg/kg) were administered to each administering group, and only water was administered to a control group. Two days after the administration, the systolic blood pressure was measured by the tail cuff method using a blood pressure measuring apparatus (UR^5000; Ueda).
# [2] = system: kidney disease model rats; test: Action to kidney diseases, renal function indicatory values; type: in vivo, Sprague-Dawley female rats; settings: 20 mg/kg/day, two weeks
# Experimental: The kidney disease model rats were prepared by a ligature of branches of renal artery in accordance with a conventional method. Namely, the left hilum renalis of Sprague-Dawley female rats was exposed under anesthesia, and one of four secondary branches of the renal artery was left unligated, while the remaining three branches were ligated, respectively. After a week, the hilum renalis (artery, vein, and ureter) of the right kidney were further ligated to thereby prepare rats whose renal function was lowered to approximately 1/8 of the normal function. Each group consisted of eight rats. The drugs to be tested (20 mg/kg) were administered to each administering group, and only water was administered to a control group. Two days after the administration, the systolic blood pressure was measured by the tail cuff method using a blood pressure measuring apparatus (UR^5000; Ueda).
# In this Example, an action to kidney diseases was evaluated on the basis of a renal function indicatory value.
# Fifteen groups (8 rats per group) were prepared in a manner such that there was no major difference between the groups in the serum creatinine value and the blood urea nitrogen value indicating renal function. The rats in each group were allowed to freely take up food and water. […] To the rats in the control group, only water was forcibly orally administered every day. After two weeks, 0.2 ml of blood was collected from the carotid artery of the rats under anesthesia, and centrifuged to obtain serum. Using 25 μl of the serum, the serum creatinine (Scr) was measured by a creatinine analytical instrument (Beckman). Using 10 μl of the serum, the blood urea nitrogen (BUN) was measured by a BUN analytical instrument (Beckman). The creatinine clearance was evaluated as follows:
# After the serum creatinine measurement, rats were placed in urinary metabolic cages for 24 hours to collect urine. A urinary creatine concentration (Ucr) was measured by a creatinine analytical instrument, and a total volume of urination (Uvol) was also measured. The creatinine clearance (CCr) was calculated by the following formula: [formula]
# In the above formula, the unit of "Ucr" and "Scr" is "mg/ml" and the unit of "Uvol" is "ml".
# [3] = system: kidney disease model rats; test: Survival time of kidney diseased animals; type: in vivo, Sprague-Dawley female rats; settings: 20 mg/kg/day; observation period eight weeks (upper limit); control 5.0
# Experimental: as §1
# In this Example, an action to survival time of kidney diseased animals was evaluated. As compounds to be examined, 2-ethoxy-1-[[4'-(2"-N,N-dimethylamino-ethoxycarbonyl)-phenyl]methyl]-1H-benzimidazole-6-carboxylic acid morpholide (Compound No. 13) prepared in Example 6, and 2-ethoxy-1-[[4'-(2"-morpholinoethoxycarbonyl)phenyl]methyl]-1H-benzimidazole-6-carboxylic acid piperidinamide (Compound No. 57) prepared in Example 28 were used.
# The kidney disease model rats were prepared as in Example 38. Fifteen groups (8 rats per group) were prepared in a manner such that there was no major difference between the groups in the serum creatinine value and the blood urea nitrogen value indicating renal function. The rats in each group were allowed to freely take up food and water. […] To the rats in the control group, only water was forcibly orally administered every day. If kidney diseases are aggravated, the rat will die of uremia. Thus, the survival time was observed as a comprehensive indication of the improvement of the effect on the kidney diseases. The observation period was eight weeks. Thus if all rats survived, the average survival time is eight weeks, and is an upper limit.
# [4] = system: rat suffering from a kidney disease; settings: J. Clinical Invest., 90: 766-771, 1992; cited from earlier work
# [5] = system: rat suffering from hyperlipemia; settings: Nephron, 65: 426-432, 1993, cited from earlier work
compound,measurement,setting,value
"CCCCc1nc(Cl)c(CO)n1Cc1ccc(-c2ccccc2-c2nnn[nH]2)cc1 [DuP753, 2-butyl-4-chloro-5-(hydroxymethyl)-1-[[2'-(1H-tetrazole-5-yl)biphenyl-4-yl]methyl]imidazole, reference compound]",action of lowering the blood pressure,[1]; in comparison with the control group,clearly exhibited the action of lowering the blood pressure
same,Blood pressure,"[1]; systolic, tail cuff, average, two days after administration, control 210",130 mmHg
same,Creatinine clearance,[2]; control 0.22,0.32 mL/min
same,Creatinine,"[2]; serum, control 2.0",1.6 mg/dL
same,Blood urea nitrogen,"[2]; serum, control 100",80 mg/dL
same,Average survival time,[3],6.9 weeks
same,effect in proteinuria and glomerulosclerosis,[4],effective in proteinuria and glomerulosclerosis
same,lowering of the blood pressure,[4],explicit lowering of the blood pressure
same,lowering of the blood pressure,[5]; higher dose,explicit lowering of the blood pressure
same,renal lesion,[5]; higher dose,more effective in the renal lesion
same,influence on the blood pressure,[5]; lower dose,without a substantial influence on the blood pressure
same,renal lesion,[5]; lower dose,renal lesion is improved
